Reference: patent EP0256472A2, “Cosmetic agent for application to skin” (priority 1986, dated 1988)

Key:
Acute oral toxicity = assay type: in vivo; conditions: rat
[1] = rabbit, in vivo
[2] = guinea pig, in vivo
collagen elastin fibril = assay: Tensile strength of healed linear skin cut in rats (Test Example 3); assay type: in vivo, Wistar 6-week old male rats; conditions: for increases in the tensile strength of collagen elastin fibril (in words): summary of Table 4
Protocol: The effect of the coenzymes and the nucleic acid related substances against the strength of collagen elastin fibril was conducted as follows:
After hair had been removed from the back of each rat in a group comprising eight Wistar 6-week old male rats, the back of the rat was cut along the median line of the back by a scalpel to make a linear cut portion having a length of 4 cm, and the cut portion was sewed up at 3 positions at equally spaced intervals by Michel's clips. The Michel's clips were removed 3 days after the sewing. 0.1 ml of each of physiological saline containing 50 mM of the above described compound or a physiological saline containing no compound (control) was repeatedly applied to the cut portion once a day for 7 days. Each rat was killed on the eighth day, and the skin of the cut portion was cut out to prepare three samples per rat, each sample being a strip of skin having a width of 1 cm crossing the cutting line.
The tensile strength of the sample up to breakage point was measured by a tensiometer to determine the strength of reproduced collagen elastin fibril. In the Table, values of the strength are shown as relative values obtained on the assumption that those of the control were 100.
In the above test, a relative value of the strength of more than 110 is considered to show an increase in the tensile strength.

[3] = in vivo
[4] = guinea pig, in vivo; remark: listed apart in the source
[5] = guinea pig, in vivo; remark: listed apart in the source
[6] = tested on: Fibroblasts originating in the human skin; assay: Promotion of growth of dermal fibroblasts (Test Example 1); assay type: cell-based; conditions: 10⁻⁵ M, 1% serum, 14 days; words of the text only, Table 2 is an image
Protocol: The action of promoting the growth of dermal fibroblasts by the coenzymes and nucleic acid related substances used in the present invention was evaluated in accordance with the following method:
Fibroblasts originating in the human skin were cultured in media to which the above-described compounds had been added and to which no such compound was added under serum controlled conditions and the effect of the compounds on proliferation was examined. That is, the above-described fibroblasts were cultured in a Co₂-incubator at 37°C for 24 hours in Eagle's MEM medium (pH 7.6) to which were added 10% of fetal bovine serum and the like. The medium was then changed to a medium in which the serum was lowered 1% and in which the fibroblasts were then cultured for 24 hours. The medium was then changed into a medium containing 10⁻⁵ M of a substance for examination and 1% of serum in which the culture was continued.
The medium was then changed on alternate days. The results obtained are shown in Table 2 in which the number of cells for each case is shown by a relative value obtained by assuming the number of cells after 14 days to be 100 in the case of the control in which no substance for examination was added.

[7] = guinea pig, in vivo; remark: listed apart in the source
collagen = assay: Promotion of collagen production in skin-excised rats: weight of granulation and hydroxyproline (Test Example 2); assay type: in vivo, Wistar 6-week old male rats; conditions: for increases in the weights of regenerated granulation and the amounts of hydroxyproline (in words): summary of Table 3
Protocol: The action of promoting the production of collagen by the coenzymes and the nucleic acid related substances used in the present invention was evaluated in accordance with the following method:
Each rat was killed on the seventh day, and then the circular portion was cut out and the weight of granulation (derma) and the amount of hydroxyproline, which is a specific amino acid constituting collagen, were measured as an index of the amount of reproduced collagen.

[8] = Lightness of discolored spot or freckled portion of human skin, color-difference meter (Example 11); assay type: in vivo; conditions: Example 12: cream as in Example 11 with this compound instead of N²,O^2ʹ-DBcGMP Na and cGMP Na
Protocol: Creams having the compositions shown in Table 23 were prepared and then applied to a discolored spot or freckled portion of the skin of each of 6 men and women in the morning and at night twice a day for 3 months. The lightness of the discolored spot portions was measured by a color-difference meter before and after the application.
The numerical values obtained before and after the application shown in the table are L-values (lightness).

[9] = Colour tone of the skin of colored guinea pigs, color-difference meter (Example 10); assay type: in vivo, guinea pig; conditions: cream with 0.5% of active principle, twice a day for 14 days; larger value = whiter skin
Protocol: After hair had been removed from the back of each colored guinea pig (3 guinea pigs in a group), a cream with which 0.5% of an active principle was mixed (cGMP or its derivatives in place of FAD 2Na used in Example 2) and a cream containing no active principle were respectively applied to the back of each guinea pig twice a day (in the morning and at night) every day for 14 days. The difference in colour tone of the skin before and after the application was measured by a color-difference meter.
The numerical values shown in the table are L-values (lightness) and a larger value indicates a whiter skin.

[10] = Half face use test of cosmetic agents on women: elasticity, complexion, roughness, wrinkling of the skin; assay type: in vivo, human; conditions: Example 9: toilet water as in Example 7 with this compound in place of N²,O^2ʹ-DBcGMP Na
From the text: Two groups each of which comprised 20 statistically-equivalent women (30 to 50 years old) were selected and the toilet water samples I and II were applied separately to the right and left face portions, respectively, of each woman in one group and the toilet water samples I and III were respectively applied to same portions of each woman in the other group by a half face method twice a day (in the morning and at night) for 3 months. The degree of improvement in terms of elasticity, complexion, roughness, and wrinkling of the skin were then examined. […]
The effectiveness of thus-prepared toilet waters was actually measured by the same method as set forth in Example 1.
The toilet water samples of the present invention and of the comparison were applied separately to the right and left face portions, respectively, of each woman in a group comprising 20 women (30 to 50 years old) by a half face method twice a day (in the morning and at night) for 3 months. The degree of improvement in terms of elasticity, complexion, roughness, and wrinkles of the skin was then examined. […]

[11] = Safety tests in the same way as in Example 1 (acute toxicity, skin irritation, skin sensitization); assay type: in vivo
From the text: The above-described coenzymes and nucleic acid related substances used in the present invention are widely present in organisms and are thus thought to be extremely safe.

[12] = relative value, control = 100, 0.1 ml of 50 mM in 10% ethanol twice a day for 6 days, seventh day
[13] = tested in the same way as in Example 1

5ʹ-deoxyadenosylcobalamine [CoB12]
LD50 value (Acute oral toxicity): LD50 value; 5 g/kg or more
Ocular-mucous membrane irritation [1]: 5%, non-irritant
Phototoxicity [2]: negative
Tensile strength (collagen elastin fibril; relative value, control = 100, more than 110 is considered an increase, 0.1 ml of 50 mM in physiological saline once a day for 7 days, eighth day): 122
increases in the tensile strength of collagen elastin fibril (in words) (collagen elastin fibril): particularly excellent effect
Human patch test [3]: 5%; non-irritant
Photosensitization [4]: negative
Skin sensitization [5]: negative
growth promotion functions for human fibroblasts [6]: particularly excellent effects
Primary skin irritation [7]: 5%; non-irritant
Amount of hydroxyproline (collagen; [12]): 167
Weight of granulation (collagen; [12]): 181
increases in the weights of regenerated granulation and the amounts of hydroxyproline (in words) (collagen): particularly excellent effects

Nc1nc2c(nc(Br)n2[C@@H]2O[C@@H]3COP(=O)(O)O[C@H]3[C@H]2O)c(=O)[nH]1 [8-BrcGMP Na]
properties of the creams (lightness of discolored spots) [8]: results similar to those in Example 11
L-values (lightness) After application [9]: 45.4
effect of preventing the aging of the skin [10]: excellent effects similar to those of Example 7

Nc1nc2c(nc(Sc3ccc(Cl)cc3)n2[C@@H]2O[C@@H]3COP(=O)(O)O[C@H]3[C@H]2O)c(=O)[nH]1 [8-ClPhScGMP Na]
L-values (lightness) After application [9]: 45.3

CC(C)(COP(=O)(O)OP(=O)(O)OC[C@H]1O[C@@H](n2cnc3c(N)ncnc32)[C@H](O)[C@@H]1OP(=O)(O)O)[C@@H](O)C(=O)NCCC(=O)NCCS [CoA 3Na, coenzyme A]
increases in the tensile strength of collagen elastin fibril (in words) (collagen elastin fibril): particularly excellent effect
safety with respect to skin irritation, etc. ([11]; in vivo): no problem was observed
growth promotion functions for human fibroblasts [6]: particularly excellent effects
increases in the weights of regenerated granulation and the amounts of hydroxyproline (in words) (collagen): particularly excellent effects

Cc1cc2nc3c(=O)[nH]c(=O)nc-3n(C[C@H](O)[C@H](O)[C@H](O)COP(=O)(O)OP(=O)(O)OC[C@H]3O[C@@H](n4cnc5c(N)ncnc54)[C@H](O)[C@@H]3O)c2cc1C [FAD 2Na, Flavin adenine dinucleotide]
safety with respect to skin irritation, etc. [11, 13]: no problem was observed

NC(=O)c1ccc[n+]([C@@H]2O[C@H](COP(=O)([O-])OP(=O)(O)OC[C@H]3O[C@@H](n4cnc5c(N)ncnc54)[C@H](O)[C@@H]3O)[C@@H](O)[C@H]2O)c1 [NAD Na, β-nicotinamide adenine dinucleotide]
safety with respect to skin irritation, etc. [11, 13]: no problem was observed

NC(=O)c1ccc[n+]([C@@H]2O[C@H](COP(=O)([O-])OP(=O)(O)OC[C@H]3O[C@@H](n4cnc5c(N)ncnc54)[C@H](OP(=O)(O)O)[C@@H]3O)[C@@H](O)[C@H]2O)c1 [NADP Na, β-nicotinamide adenine dinucleotide phosphate]
safety with respect to skin irritation, etc. [11, 13]: no problem was observed

CCCC(=O)Nc1nc2c(ncn2[C@@H]2O[C@@H]3COP(=O)(O)O[C@H]3[C@H]2OC(=O)CCC)c(=O)[nH]1 [N^2,O^2'-DBcGMP Na]
safety with respect to skin irritation, etc. [11, 13]: problems such as skin irritating property were not found
L-values (lightness) After application [9]: 45.5

O=C(O)CCC(=O)Nc1nc2c(ncn2[C@@H]2O[C@@H]3COP(=O)(O)O[C@H]3[C@H]2OC(=O)CCC(=O)O)c(=O)[nH]1 [N^2,O^2'-DScGMP Na]
L-values (lightness) After application [9]: 45.3
effect of preventing the aging of the skin [10]: excellent effects similar to those of Example 7

CCCC(=O)Nc1nc2c(ncn2[C@@H]2O[C@@H]3COP(=O)(O)O[C@H]3[C@H]2O)c(=O)[nH]1 [N^2-MBcGMP Na]
properties of the creams (lightness of discolored spots) [8]: results similar to those in Example 11
L-values (lightness) After application [9]: 44.6
effect of preventing the aging of the skin [10]: excellent effects similar to those of Example 7

O=C(O)CCC(=O)Nc1nc2c(ncn2[C@@H]2O[C@@H]3COP(=O)(O)O[C@H]3[C@H]2O)c(=O)[nH]1 [N^2-MScGMP Na]
L-values (lightness) After application [9]: 44.6

CCCC(=O)OC1C2OP(=O)(O)OCC2OC1n1cnc2c(=O)[nH]c(N)nc21 (stereo not drawn) [O^2'-MBcGMP Na]
properties of the creams (lightness of discolored spots) [8]: results similar to those in Example 11
L-values (lightness) After application [9]: 43.7
effect of preventing the aging of the skin [10]: excellent effects similar to those of Example 7

Nc1nc2c(ncn2[C@@H]2O[C@@H]3COP(=O)(O)O[C@H]3[C@H]2OC(=O)CCC(=O)O)c(=O)[nH]1 [O^2'-MScGMP Na]
L-values (lightness) After application [9]: 43.8

O=C(O)c1cc(C(=O)O)c2c(n1)C(=O)C(=O)c1cc(C(=O)O)[nH]c1-2 [PQQ 2Na, Pyrrolo-quinoline quinone]
safety with respect to skin irritation, etc. ([11]; in vivo): no problem was observed

Nc1nc2c(ncn2[C@@H]2O[C@@H]3COP(=O)(O)O[C@H]3[C@H]2O)c(=O)[nH]1 [cGMP Na, guanosine 3ʹ,5ʹ-cyclic monophosphate]
safety with respect to skin irritation, etc. [11, 13]: no problem
L-values (lightness) After application [9]: 43.0
